# Patent US20090226500A1, “SUTURES AND ANTI-SCARRING AGENTS” (Angiotech Pharmaceuticals, Inc, priority 2006, published 2009)
# Counter-ions that a name gives are not always drawn. Numbered stars: 1 amine (or outer) side, 2 acyl side, 3 side chain; on linkers, the order of the positions; unused ones are H or OH. Bridge positions count the residues as written; N and C are the ends. Square brackets hold non-standard residues; d marks the D form. Peptide text beside a SMILES is read from it. I, II: the chains in the order shown. Actinocin(9to1) = Cc1c2oc3c(C)ccc(C(=O)[*:1])c3nc-2c(C(=O)[*:2])c(N)c1=O; NMeV = CN[C@H](C(=O)O)C(C)C; Sar = CNCC(=O)O
# System: human fibroblasts
# Assay: Cell proliferation of fibroblasts
# Type: cell-based
# Settings: Fibroblast, 72 h, read-out: IC50 cell proliferation of fibroblasts
# Procedure: Fibroblasts at 70-90% confluency are trypsinized, replated at 600 cells/well in media in 96-well plates and allowed to attachment overnight. […] Each drug concentration is tested in triplicate wells. Plates containing fibroblasts and drug substance are incubated at 37° C. for 72 hours.
# To terminate the assay, the media is removed by gentle aspiration. A 1/400 dilution of CYQUANT 400×GR™ dye indicator (Molecular Probes; Eugene, Oreg.) is added to 1× Cell Lysis buffer, and 200 μL of the mixture is added to the wells of the plate. Plates are incubated at room temperature, protected from light for 3-5 minutes.
row,SMILES,IC50
1,NCCCNCCCCNCCCN [Spermine tetrahydrochloride],600 to 1200 nM

# Same assay, conditions: Fibroblast, 72 hours, CYQUANT, read-out: IC50 cell proliferation of fibroblasts
row,SMILES,IC50
1,NCCCCNCCCN [Spermidine trihydrochloride],1200 to 10000 nM
2,CN(C)[C@@H]1C(O)=C(C(N)=O)C(=O)[C@@]2(O)C(O)=C3C(=O)c4c(O)cccc4[C@@](C)(O)[C@H]3[C@H](O)[C@@H]12 [Oxytetracycline hydrochloride],100 to 600 nM
3,CCOc1nc2cccc(C(=O)O)c2n1Cc1ccc(-c2ccccc2-c2nnn[nH]2)cc1 [Candesartan],10 to 100 nM
4,CC[C@@]1(O)C[C@H](O[C@H]2C[C@H](N(C)C)[C@H](O[C@H]3C[C@H](O)[C@H](O[C@H]4CCC(=O)[C@H](C)O4)[C@H](C)O3)[C@H](C)O2)c2c(cc3c(c2O)C(=O)c2c(O)cccc2C3=O)[C@H]1C(=O)OC [Aclarubicin],0.1 to 10 nM
5,O=c1c(O)c(-c2ccc(O)c(O)c2)oc2cc(O)cc(O)c12 [Quercetin dihydrate],100 to 600 nM
6,CC(C)n1c(/C=C/C(O)CC(O)CC(=O)O)c(-c2ccc(F)cc2)c2ccccc21 (centres unmarked) [Fluvastatin],100 to 600 nM
7,Nc1nc2c(cnn2CCc2ccccc2)c2nc(-c3ccco3)nn12 [SCH-58261],1200 to 10000 nM
8,Clc1ccc(CCC(Cn2ccnc2)Sc2c(Cl)cccc2Cl)cc1 (centres unmarked) [Butoconazole Nitrate],1200 to 10000 nM
9,C/C=C(/C)C(=O)O[C@H]1C(C)=C2[C@H]([C@@H]1OC(=O)CCCCCCC)[C@@](C)(OC(C)=O)C[C@H](OC(=O)CCC)[C@@]1(O)[C@H]2OC(=O)[C@@]1(C)O [Thapsigargin],0.1 to 10 nM
10,Nc1ncn([C@@H]2O[C@H](CO)[C@@H](O)[C@H]2O)c(=O)n1 [5-Azacytidine],600 to 1200 nM
11,COC(=O)C[C@](O)(CCCC(C)(C)O)C(=O)O[C@@H]1C(OC)=C[C@]23CCCN2CCc2cc4c(cc2[C@H]13)OCO4 [Homoharringtonine],10 to 100 nM
12,CC[C@]12CCCN3CCc4c(n(c5ccccc45)[C@@](O)(C(=O)OC)C1)[C@@H]32 [Vincamine],0.1 to 10 nM
13,c1c[nH]cn1 [Imidazole],1200 to 10000 nM
14,"COC(=O)C=Cc1cc(O)ccc1O [Erbstatin analog, Methyl 2,5-dihydroxycinnamate]",1200 to 10000 nM
15,"CCCCCCCCCCCCCCC[C@H](O)[C@@H](N)CO [Safingol, L-threo-Dihydrosphingosine]",600 to 1200 nM
16,CC1(COc2ccc(CC3SC(=O)NC3=O)cc2)CCCCC1 (centres unmarked) [Ciglitazone],600 to 1200 nM
17,COc1cccc(-c2ccc(NC(=O)C3=C(C(=O)O)CCC3)c(F)c2)c1 [SC12267],1200 to 10000 nM
18,"Cc1c2oc3c(C)ccc(C(=O)N[C@@H]4C(=O)N[C@H](C(C)C)C(=O)N5CCC[C@H]5C(=O)N(C)CC(=O)N(C)[C@@H](C(C)C)C(=O)O[C@@H]4C)c3nc-2c(C(=O)N[C@@H]2C(=O)N[C@H](C(C)C)C(=O)N3CCC[C@H]3C(=O)N(C)CC(=O)N(C)[C@@H](C(C)C)C(=O)O[C@@H]2C)c(N)c1=O [Actinomycin D] (I: T[dV]P[Sar][NMeV] / II: T[dV]P[Sar][NMeV]; ester I:1-I:C, II:1-II:C; linker I:N-II:N via Actinocin(9to1))",0.1 to 10 nM
19,CCOC(=O)[C@H](CCc1ccccc1)N[C@@H](C)C(=O)N1CCC[C@H]1C(=O)O [Enalapril],1200 to 10000 nM
20,CN(C)/N=N/c1[nH]cnc1C(N)=O [Dacarbazine],10 to 100 nM
21,Cn1c(=O)c2[nH]cnc2n(C)c1=O [Theophylline],0.1 to 10 nM
22,"O=c1cnn([C@@H]2O[C@H](CO)C(O)[C@@H]2O)c(=O)[nH]1 (some centres unmarked) [6-Azauridine, 6-Azauracil riboside]",1200 to 10000 nM
23,NNc1nncc2ccccc12 [Hydralazine hydrochloride],1200 to 10000 nM

row,SMILES,IC50
1,"O=c1cc(-c2ccc(O)cc2)oc2cc(O)cc(O)c12 [Apigenin, 4,5,7-Trihydroxyflavone]",1200 to 10000 nM
2,COc1ccc2cc1Oc1ccc(cc1)C[C@H]1c3c(cc4c(c3Oc3cc5c(cc3OC)CCN(C)[C@@H]5C2)OCO4)CCN1C [Cepharanthine],600 to 1200 nM
3,O=NN(CCCl)C(=O)NCCCl [Carmustine],1200 to 10000 nM
4,CCC(=O)O[C@]1(C(=O)CCl)[C@@H](C)C[C@H]2[C@@H]3C[C@H](F)C4=CC(=O)C=C[C@]4(C)[C@@]3(F)[C@@H](O)C[C@@]21C [Halobetasol Propionate],1200 to 10000 nM
5,C=C(C)[C@@H]1CC[C@]2(C(=O)O)CC[C@]3(C)[C@H](CC[C@@H]4[C@@]5(C)CC[C@H](O)C(C)(C)[C@@H]5CC[C@]43C)[C@@H]12 [Betulinic acid],1200 to 10000 nM
6,O=C(O)C[C@H](O)C[C@H](O)/C=C/c1c(C2CC2)nc2ccccc2c1-c1ccc(F)cc1 [Pitavastatin],100 to 600 nM
7,NCCC(O)(P(=O)(O)O)P(=O)(O)O [Pamidronate disodium],100 to 600 nM
8,CC[C@H](C)C(=O)O[C@H]1C[C@H](O)C=C2C=C[C@H](C)[C@H](CC[C@@H](O)C[C@@H](O)CC(=O)O)[C@H]21 [Pravastatin],1200 to 10000 nM
9,O=C1CCc2cc(OCCCCc3nnnn3C3CCCCC3)ccc2N1 [Cliostazol],1200 to 10000 nM
10,NC(=O)c1ncn([C@@H]2O[C@H](CO)[C@@H](O)[C@H]2O)c1O [Mizoribine],10 to 100 nM
11,CC(=O)OCC(=O)[C@@]1(OC(C)=O)[C@@H](C)C[C@H]2[C@@H]3C[C@H](F)C4=CC(=O)C=C[C@]4(C)[C@@]3(F)[C@@H](O)C[C@@]21C [Diflorasone diacetate],1200 to 10000 nM
12,"CC(=O)CC(c1ccccc1)c1c(O)c2ccccc2oc1=O (centres unmarked) [Warfarin, 3-(a-Acetonylbenzyl)-4-hydroxycoumarin sodium salt]",0.1 to 10 nM
13,O=c1c(O)c(-c2ccc(O)cc2)oc2cc(O)cc(O)c12 [Kaempferol],600 to 1200 nM
14,OC1(c2ccc(Cl)c(C(F)(F)F)c2)CCN(CCCC(c2ccc(F)cc2)c2ccc(F)cc2)CC1 [Penfluridol],600 to 1200 nM
15,O=C1C(O)=C([C@H]2CC[C@H](c3ccc(Cl)cc3)CC2)C(=O)c2ccccc21 [Atovaquone],1200 to 10000 nM
16,CS(=O)(=O)Nc1ccc([N+](=O)[O-])cc1OC1CCCCC1 [NS-398],1200 to 10000 nM
17,CNCCC=C1c2ccccc2CCc2ccccc21 [Nortriptyline Hydrochloride],0.1 to 10 nM
18,Cc1ccc(C)c(OCCCC(C)(C)C(=O)O)c1 [Gemfibrozil],10 to 100 nM
19,Cc1ccnc(NS(=O)(=O)c2ccc(N)cc2)n1 [Sulfamerazine],1200 to 10000 nM
20,O=C(O)CSCC(=O)NC1CCSC1=O (centres unmarked) [Erdosteine],1200 to 10000 nM
21,CC(=O)OCC(=O)NCCCOc1cccc(CN2CCCCC2)c1 [Roxatidine acetate],600 to 1200 nM
22,Nc1nc(F)nc2c1ncn2[C@@H]1O[C@H](COP(=O)(O)O)[C@@H](O)[C@@H]1O [Fludarabine Phosphate],1200 to 10000 nM
23,COc1ccc([C@@H]2CC(=O)c3c(O)cc(O)cc3O2)cc1O [Hesperetin],0.1 to 10 nM

row,SMILES,IC50
1,O=c1c(O)c(-c2cc(O)c(O)c(O)c2)oc2cc(O)cc(O)c12 [Myricetin],600 to 1200 nM
2,CC(C)c1nc(N(C)S(C)(=O)=O)nc(-c2ccc(F)cc2)c1/C=C/[C@@H](O)C[C@@H](O)CC(=O)O [Rosuvastatin],1200 to 10000 nM
3,COCc1c(C(C)C)nc(C(C)C)c(/C=C/[C@@H](O)C[C@@H](O)CC(=O)O)c1-c1ccc(F)cc1 [Cerivastatin Na],1200 to 10000 nM
4,CC(C)[C@]12O[C@H]1[C@@H]1O[C@]13[C@]1(O[C@H]1C[C@H]1C4=C(CC[C@@]13C)C(=O)OC4)[C@@H]2O [Triptolide],0.1 to 10 nM
5,O=C1NC(=O)c2cc(Nc3ccc(F)cc3)c(Nc3ccc(F)cc3)cc21 [CGP53353],1200 to 10000 nM
6,COC1=C(OC)C(=O)C(CCCCCCCCCCO)=C(C)C1=O [Idebenone],1200 to 10000 nM
7,O[C@@H]([C@H](O)[C@H](O)CBr)[C@H](O)CBr [Mitobronitol],100 to 600 nM
8,CN(C/C=C/C#CC(C)(C)C)Cc1cccc2ccccc12 [Terbinafine],10 to 100 nM
9,COc1ccc(C2CNC(=O)C2)cc1OC1CCCC1 (centres unmarked) [Rolipram],100 to 600 nM
10,CCCCCCC(C)(C)c1cc(O)c2c(c1)OC(C)(C)[C@@H]1CC=C(CO)C[C@@H]21 [HU-210],1200 to 10000 nM
11,CO[C@H]1C[C@@H]2CC[C@@H](C)[C@@](O)(O2)C(=O)C(=O)N2CCCC[C@H]2C(=O)O[C@H]([C@H](C)C[C@@H]2CC[C@H](n3cnnn3)[C@H](OC)C2)CC(=O)[C@H](C)/C=C(\C)[C@@H](O)[C@@H](OC)C(=O)[C@H](C)C[C@H](C)/C=C/C=C/C=C/1C [Zotarolimus],0.1 to 10 nM
12,Cc1nc2ccc(CN(C)c3ccc(C(=O)N[C@@H](CCC(=O)O)C(=O)O)s3)cc2c(=O)[nH]1 [Raltitrexed],10 to 100 nM
13,O=C(/C=C/c1ccccc1)NC(NC(=S)Nc1cccc2cccnc12)C(Cl)(Cl)Cl (centres unmarked) [Salubrinal],1200 to 10000 nM
14,"O=C(CCBr)N1CCN(C(=O)CCBr)CC1 [Pipobroman, N,N-Bis(3-bromopropionyl)piperazine]",1200 to 10000 nM
15,Nc1nccc(-c2c(-c3ccc(F)cc3)ncn2C2CCNCC2)n1 [SB 220025],1200 to 10000 nM
16,CO[C@@H]1[C@@H](O[C@@H]2O[C@H](C)[C@@H](O[C@H]3C[C@@](C)(O)[C@@H](OC(=O)CC(C)C)[C@H](C)O3)[C@H](N(C)C)[C@H]2O)[C@@H](CC=O)C[C@@H](C)[C@@H](O)/C=C/C=C/C[C@@H](C)OC(=O)C[C@H]1OC(C)=O [Josamycin],0.1 to 10 nM
17,"Nc1ncn([C@H]2C[C@H](O)[C@@H](CO)O2)c(=O)n1 [Decitabine, 5-Aza-2-deoxycytidine]",100 to 600 nM
18,COc1cc(O)c2c(c1)oc(=O)c1c3cc(O)c(O)cc3oc21 [Wedelolactone],1200 to 10000 nM
19,CCCCc1nc(Cl)c(CO)n1Cc1ccc(-c2ccccc2-c2nn[nH]n2)cc1 [Losartan potassium],1200 to 10000 nM
20,O=c1[nH]cnc2c1ncn2[C@@H]1O[C@H](CO)[C@@H](O)[C@H]1O [INO-1001],1200 to 10000 nM
21,COc1cc([C@@H]2c3cc4c(cc3[C@@H](O[C@@H]3O[C@@H]5CO[C@@H](c6cccs6)O[C@H]5[C@H](O)[C@H]3O)[C@H]3COC(=O)[C@H]23)OCO4)cc(OC)c1O [Teniposide],10 to 100 nM
